Test results reported in US12727608B2, “Stable liquid animal feed ingredient” (PURAC BIOCHEM B.V., priority 2020, dated 2026).

Legend:
Format in all cases: cell-based
Settings in all cases: Experiment 2; 72 hours at 30° C.
[1] = system: Streptococcus suis DSM 9682; assay: MIC determination (Bioscreen growth)
[2] = system: Clostridium perfringens ATCC 13124
[3] = system: Streptococcus suis DSM 28762; assay: MIC determination (Bioscreen growth)

Measured: MIC value

CC(O)CO (stereo not drawn) [MPG, 1,2-propanediol]
>405 ppm: all assays above
